The text below walks through data of patent US20160052887A1, “PHARMACEUTICALLY ACCEPTABLE AMINE SALTS OF PITAVASTATIN” (DSM SINOCHEM PHARMACEUTICALS NETHERLANDS B.V., priority 2013, published 2016).

Structures are written as SMILES. Where a name gives a salt, the structure may show the parent alone.

Data set [1] in a line: Solubility of pitavastatin salts in buffers of pH 1.2 and pH 4.8. The data set is classed as physicochemical. As to conditions: for Appearance: appearance of the mixture at the reported pH and amount of salt added. From the text:
The pharmaceutically acceptable pitavastatin salts obtained above were subjected to solubility measurements. […] Amounts of added salt were increased as long as the resulting solution remained clear and the resulting pH value, as well as the total amount of salt added, are reported in the below Table.
The following observations were made. The solubility of pitavastatin calcium salt is very low, initially the compound floated on the buffer. In contrast, the solubility of the amine salts was much higher; in many cases solutions were still clear after more than 160 mg·g^−1 solution was added. For the amine salts, pH values increased to values as reported in the Table upon increasing addition of salt (indicating exhaustion of buffer capacity due to high salt solubility). […] Qualitatively, the speed of dissolution of the amine salts was much faster than the speed of dissolution of the calcium salt. The pitavastatin amine salts were not hygroscopic (qualitative determination).

Data set [2] is described as follows: Basic toxicological evaluation.

Turning to `O=C(O)C[C@H](O)C[C@H](O)/C=C/c1c(C2CC2)nc2ccccc2c1-c1ccc(F)cc1` [Calcium salt, pitavastatin-Ca, reference compound], the Appearance result in data set [1] was “Suspension”. Besides, the “Solubility (observation in words)” value in data set [1] (aqueous buffers) is given as “very low”.

In the case of `O=C(O)C[C@H](O)C[C@H](O)/C=C/c1c(C2CC2)nc2ccccc2c1-c1ccc(F)cc1` [Choline salt, pitavastatin-choline salt], the Appearance entry in data set [1] is given as “Clear”.

As to `NCc1ccco1` [1-furfurylamine], the Toxicological classification entry in data set [2] is “very safe”.

Consider `NCc1ccco1.O=C(O)C[C@H](O)C[C@H](O)/C=C/c1c(C2CC2)nc2ccccc2c1-c1ccc(F)cc1` [Furfurylamine salt, pitavastatin-furfuryl amine salt], for which the Appearance result in data set [1] is given as “Suspension”.

Regarding `O=C(O)C[C@H](O)C[C@H](O)/C=C/c1c(C2CC2)nc2ccccc2c1-c1ccc(F)cc1` [Tris(hydroxymethyl)-aminomethane salt, pitavastatin-tris(hydroxymethyl)aminomethane salt], the Appearance entry in data set [1] is on record as “Clear”.

On to `O=C(O)C[C@H](O)C[C@H](O)/C=C/c1c(C2CC2)nc2ccccc2c1-c1ccc(F)cc1` [L-Lysine salt, pitavastatin-lysine salt], for which the “Solubility (observation in words)” value in data set [1] (starting with a buffer of pH 4.8 (entry at pH 4.5)) was “very low”.
